Laboratory results from publication PMC11845477, “Exploring the principles behind antibiotics with limited resistance” (Nature Communications, 2025).

Tests used:
[1] = tested on: A. baumannii ATCC 17978 (SEN) and A. baumannii ATCC BAA-1605 (MDR); experiment: microbe, parasite or virus in culture; type: cell-based, Acinetobacter baumannii; settings: for MIC: across three biological replicates
Method in brief: (§1)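 Cells at 5 × 10^5 per mL in cation-adjusted MHB 2 across 11 to 16-step dilutions, 2 replicates. Relative MIC expressed as MICevolved/MICancestor.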

[2] = tested on: P. aeruginosa ATCC BAA-3107 (SEN) and P. aeruginosa LESB58 (MDR); experiment: microbe, parasite or virus in culture; type: cell-based, Pseudomonas aeruginosa; settings: across three biological replicates
Method in brief: as §1

[3] = tested on: K. pneumoniae ATCC 10031 (SEN) and K. pneumoniae ATCC 700603 (MDR); experiment: Adaptive laboratory evolution (ALE), relative MIC of evolved lines; type: cell-based, Klebsiella pneumoniae
Method in brief: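 Ten parallel populations per antibiotic–ancestor pair were evolved in MHB at 37 °C, starting near 50% growth-inhibiting drug. Every 72 h they were passaged into 0.5–2.5× increasing concentrations, keeping the highest-drug well with OD600 > 0.2.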

[4] = KP-SEN (Klebsiella pneumoniae ATCC 10031), evolved line 2
[5] = KP-SEN (Klebsiella pneumoniae ATCC 10031), evolved line 6
[6] = KP-SEN (Klebsiella pneumoniae ATCC 10031), evolved line 8
[7] = KP-SEN (Klebsiella pneumoniae ATCC 10031), evolved line 10
[8] = Klebsiella pneumoniae ATCC 10031 (KP-SEN), evolved line 1
[9] = Klebsiella pneumoniae ATCC 10031 (KP-SEN), evolved line 2
[10] = Klebsiella pneumoniae ATCC 10031 (KP-SEN), evolved line 3
[11] = Klebsiella pneumoniae ATCC 10031 (KP-SEN), evolved line 4
[12] = Klebsiella pneumoniae ATCC 10031 (KP-SEN), evolved line 5
[13] = Klebsiella pneumoniae ATCC 10031 (KP-SEN), evolved line 6
[14] = Klebsiella pneumoniae ATCC 10031 (KP-SEN), evolved line 8
[15] = Klebsiella pneumoniae ATCC 10031 (KP-SEN), evolved line 10

C[C@@H](O)[C@H]1C(=O)N2C(C(=O)O)=C(S[C@H]3CC[S@@+]([O-])C3)S[C@H]12 [Sulopenem]
MIC of ancestor ([1]; Acinetobacter baumannii ATCC 17978 (AB-SEN), ancestor strain, sheet fig 2a): 1 µg/mL | MIC ([1]; Acinetobacter baumannii ATCC 17978 (AB-SEN)): 1 µg/mL | MIC ([1]; Acinetobacter baumannii ATCC BAA-1605 (AB-MDR)): 32 µg/mL | MIC of ancestor ([1]; ancestor AB-SEN (Acinetobacter baumannii ATCC 17978)): 1 µg/mL | MIC ([2]; Pseudomonas aeruginosa ATCC BAA-3107 (PA-SEN)): 16 µg/mL | MIC ([2]; Pseudomonas aeruginosa LESB 58 (PA-MDR)): >32 µg/mL | MIC of evolved line ([3]; KP-MDR (K. pneumoniae ATCC 700603), evolved line 1 of the given antibiotic): 128 µg/mL | Relative MIC ([3]; KP-MDR (K. pneumoniae ATCC 700603), evolved line 1 vs ancestor): 256 | MIC of evolved line ([3]; KP-MDR (K. pneumoniae ATCC 700603), evolved line 3 of the given antibiotic): 128 µg/mL | Relative MIC ([3]; KP-MDR (K. pneumoniae ATCC 700603), evolved line 3 vs ancestor): 256 | MIC of evolved line ([3]; KP-MDR (K. pneumoniae ATCC 700603), evolved line 4 of the given antibiotic): 128 µg/mL | Relative MIC ([3]; KP-MDR (K. pneumoniae ATCC 700603), evolved line 4 vs ancestor): 256 | MIC of evolved line ([3]; KP-MDR (K. pneumoniae ATCC 700603), evolved line 5 of the given antibiotic): 128 µg/mL | Relative MIC ([3]; KP-MDR (K. pneumoniae ATCC 700603), evolved line 5 vs ancestor): 256 | MIC of evolved line ([3]; KP-MDR (K. pneumoniae ATCC 700603), evolved line 8 of the given antibiotic): 128 µg/mL | Relative MIC ([3]; KP-MDR (K. pneumoniae ATCC 700603), evolved line 8 vs ancestor): 256 | MIC of evolved line ([3]; KP-MDR (K. pneumoniae ATCC 700603), evolved line 9 of the given antibiotic): 128 µg/mL | Relative MIC ([3]; KP-MDR (K. pneumoniae ATCC 700603), evolved line 9 vs ancestor): 256 | MIC of evolved line ([3]; KP-MDR (K. pneumoniae ATCC 700603), evolved line 10 of the given antibiotic): 128 µg/mL | Relative MIC ([3]; KP-MDR (K. pneumoniae ATCC 700603), evolved line 10 vs ancestor): 256 | Relative MIC (log10) ([3]; KP-MDR (Klebsiella pneumoniae ATCC 700603), evolved line 1): 2.408 log10 | Relative MIC (log10) ([3]; KP-MDR (Klebsiella pneumoniae ATCC 700603), evolved line 3): 2.408 log10 | Relative MIC (log10) ([3]; KP-MDR (Klebsiella pneumoniae ATCC 700603), evolved line 4): 2.408 log10 | Relative MIC (log10) ([3]; KP-MDR (Klebsiella pneumoniae ATCC 700603), evolved line 8): 2.408 log10 | Relative MIC (log10) ([3]; KP-MDR (Klebsiella pneumoniae ATCC 700603), evolved line 9): 2.408 log10 | MIC of evolved line ([3]; KP-SEN (K. pneumoniae ATCC 10031), evolved line 1 of the given antibiotic): 1 µg/mL | Relative MIC ([3]; KP-SEN (K. pneumoniae ATCC 10031), evolved line 1 vs ancestor): 32 | MIC of evolved line ([3]; KP-SEN (K. pneumoniae ATCC 10031), evolved line 2 of the given antibiotic): 1 µg/mL | Relative MIC ([3]; KP-SEN (K. pneumoniae ATCC 10031), evolved line 2 vs ancestor): 32 | MIC of evolved line ([3]; KP-SEN (K. pneumoniae ATCC 10031), evolved line 3 of the given antibiotic): 0.25 µg/mL | Relative MIC ([3]; KP-SEN (K. pneumoniae ATCC 10031), evolved line 3 vs ancestor): 8 | MIC of evolved line ([3]; KP-SEN (K. pneumoniae ATCC 10031), evolved line 4 of the given antibiotic): 0.5 µg/mL | Relative MIC ([3]; KP-SEN (K. pneumoniae ATCC 10031), evolved line 4 vs ancestor): 16 | MIC of evolved line ([3]; KP-SEN (K. pneumoniae ATCC 10031), evolved line 5 of the given antibiotic): 0.5 µg/mL | Relative MIC ([3]; KP-SEN (K. pneumoniae ATCC 10031), evolved line 5 vs ancestor): 16 | MIC of evolved line ([3]; KP-SEN (K. pneumoniae ATCC 10031), evolved line 6 of the given antibiotic): 1 µg/mL | Relative MIC ([3]; KP-SEN (K. pneumoniae ATCC 10031), evolved line 6 vs ancestor): 32 | MIC of evolved line ([3]; KP-SEN (K. pneumoniae ATCC 10031), evolved line 8 of the given antibiotic): 1 µg/mL | Relative MIC ([3]; KP-SEN (K. pneumoniae ATCC 10031), evolved line 8 vs ancestor): 32 | MIC of evolved line ([3]; KP-SEN (K. pneumoniae ATCC 10031), evolved line 9 of the given antibiotic): 0.5 µg/mL | Relative MIC ([3]; KP-SEN (K. pneumoniae ATCC 10031), evolved line 9 vs ancestor): 16 | MIC of evolved line ([3]; KP-SEN (K. pneumoniae ATCC 10031), evolved line 10 of the given antibiotic): 1 µg/mL | Relative MIC ([3]; KP-SEN (K. pneumoniae ATCC 10031), evolved line 10 vs ancestor): 32 | Relative MIC (log10) ([3]; KP-SEN (Klebsiella pneumoniae ATCC 10031), evolved line 1): 1.505 log10 | Relative MIC (log10) [3, 4]: 1.505 log10 | Relative MIC (log10) [3, 5]: 1.505 log10 | Relative MIC (log10) [3, 6]: 1.505 log10 | Relative MIC (log10) [3, 7]: 1.505 log10 | Relative MIC [3, 8]: 32 | Relative MIC [3, 9]: 32 | Relative MIC [3, 10]: 8 | Relative MIC [3, 11]: 16 | Relative MIC [3, 12]: 16 | Relative MIC [3, 13]: 32 | Relative MIC [3, 14]: 32 | Relative MIC ([3]; Klebsiella pneumoniae ATCC 10031 (KP-SEN), evolved line 9): 16 | Relative MIC [3, 15]: 32 | Relative MIC ([3]; Klebsiella pneumoniae ATCC 700603 (KP-MDR), evolved line 1): 256 | Relative MIC ([3]; Klebsiella pneumoniae ATCC 700603 (KP-MDR), evolved line 3): 256 | Relative MIC ([3]; Klebsiella pneumoniae ATCC 700603 (KP-MDR), evolved line 4): 256 | Relative MIC ([3]; Klebsiella pneumoniae ATCC 700603 (KP-MDR), evolved line 5): 256 | Relative MIC ([3]; Klebsiella pneumoniae ATCC 700603 (KP-MDR), evolved line 8): 256 | Relative MIC ([3]; Klebsiella pneumoniae ATCC 700603 (KP-MDR), evolved line 9): 256 | Relative MIC ([3]; Klebsiella pneumoniae ATCC 700603 (KP-MDR), evolved line 10): 256

C[C@@H]1CN2c3c(cc4c(N5C(=O)OC[C@@H]5C)noc4c3F)CC3(C(=O)NC(=O)NC3=O)[C@H]2[C@H](C)O1 [Zoliflodacin]
MIC ([1]; Acinetobacter baumannii, Acinetobacter baumannii ATCC 17978 (AB-SEN)): 8 µg/mL | MIC ([1]; Acinetobacter baumannii, Acinetobacter baumannii ATCC BAA-1605 (AB-MDR)): 16 µg/mL | MIC ([2]; Pseudomonas aeruginosa, ATCCBAA3107, Pseudomonas aeruginosa ATCC BAA-3107 (PA-SEN)): 8 µg/mL | MIC ([2]; Pseudomonas aeruginosa, ATCCBAA3107, Pseudomonas aeruginosa LESB 58 (PA-MDR)): > 32 µg/mL | Relative MIC ([3]; KP-SEN (ATCC 10031), evolved line 1, evolved vs ancestor): 1024 | Relative MIC ([3]; KP-SEN (ATCC 10031), evolved line 2, evolved vs ancestor): 1024 | Relative MIC ([3]; KP-SEN (ATCC 10031), evolved line 3, evolved vs ancestor): 512 | Relative MIC ([3]; KP-SEN (ATCC 10031), evolved line 4, evolved vs ancestor): 1024 | Relative MIC ([3]; KP-SEN (ATCC 10031), evolved line 5, evolved vs ancestor): 1024 | Relative MIC ([3]; KP-SEN (ATCC 10031), evolved line 6, evolved vs ancestor): 1024 | Relative MIC ([3]; KP-SEN (ATCC 10031), evolved line 7, evolved vs ancestor): 1024 | Relative MIC ([3]; KP-SEN (ATCC 10031), evolved line 8, evolved vs ancestor): 1024 | Relative MIC ([3]; KP-SEN (ATCC 10031), evolved line 10, evolved vs ancestor): 1024 | Relative MIC (log10) [3, 4]: 3.0103 log10 | Relative MIC (log10) ([3]; KP-SEN (Klebsiella pneumoniae ATCC 10031), evolved line 4): 3.0103 log10 | Relative MIC (log10) [3, 5]: 3.0103 log10 | Relative MIC (log10) [3, 6]: 3.0103 log10 | Relative MIC (log10) [3, 7]: 3.0103 log10 | Relative MIC [3, 8]: 1024 | Relative MIC [3, 9]: 1024 | Relative MIC [3, 10]: 512 | Relative MIC [3, 11]: 1024 | Relative MIC [3, 12]: 1024 | Relative MIC [3, 13]: 1024 | Relative MIC ([3]; Klebsiella pneumoniae ATCC 10031 (KP-SEN), evolved line 7): 1024 | Relative MIC [3, 14]: 1024 | Relative MIC [3, 15]: 1024
